The subject of experiment [1] is HDAC4/5/7. Description: Immunoblot of HDAC phosphorylation in primary hepatocytes treated with A769662. It is filed as cell-based, mouse. The settings on record: 1 hr, particularly on the Ser498 sites. As for the experimental part: (F) Lysates from primary hepatocytes treated with either AMPK agonist A769662 or Vehicle (DMSO) for 1 hr and immunoblotted with indicated antibodies.
(§1) Primary hepatocytes were derived from C57BL/6J mice and maintained in serum free Media 199. Cells were transduced 24 hrs after harvesting. Knock-down and over-expression studies in hepatocytes were done by infecting cells at 5 PFUs/cell. All adenoviral shRNA knockdowns were carried out for 72 hrs. For subcellular fractionation, cells were treated as indicated, washed 3 times with PBS and lysed utilizing NE-PER Cell Fractionation Kit (Pierce). Primary hepatocytes were treated with 10 uM Forksolin (Sigma) and 100 nM Glucagon (Novo Nordisk), 100 nM insulin (Lilly) at indicated times.
(A western blot detects proteins with antibodies after separation by electrophoresis.)

For experiment [2], the system named is db/db mice. Description: Blood glucose in db/db mice treated with MC1568. The experiment is classed as in vivo, mouse. The settings on record: 50 mg/kg intraperitoneally once a day for 4 days, fasted for 22 hours (4 hrs after final treatment). As for the experimental part: (§2) Blood glucose was measured on mice fasted for 22 hours (4 hrs following the final treatment).

In experiment [3] the test system is G6PAse and PEPCK mRNA. Description: qPCR of G6PAse and PEPCK mRNA in primary hepatocytes pre-treated with MC1568. It is filed as cell-based, mouse. As to conditions: 5 uM MC1568 for 14 hours, then 10 uM Forskolin or 100 nM Glucagon for 4 hrs; normalized to cyclophilin. As for the experimental part:
as §2, §1
mRNA from primary hepatocytes was isolated using RNAeasy (Qiagen) kit and reverse transcribed using SuperScript II Reverse Transcriptase. Three samples/mice were used per condition and qPCR was done in technical triplicate for each sample. qPCR reaction was carried out using Syber GreenER (Invitrogen). All qPCR results are representative of 3 separate experiments.
In general terms: Real-time PCR tracks product formation cycle by cycle.

For experiment [4], the system named is HDAC4/5/7. Description: Immunoblot of HDAC phosphorylation in livers of metformin-treated mice. The settings on record: mouse liver, 250 mg/kg metformin intraperitoneally for 1 h. The experiment is classed as in vivo.
Experimental: (D) Immunoblot of lysates from murine livers from LKB1+/+ or LKB1lox/lox mice deleted for hepatic LKB1 and treated with either 250 mg/kg metformin, or saline alone for 1 h.
To induce Cre-mediated deletion in Albumin-creERT2 mice, mice were intraperitoneally injected with 1 mg/mouse of Tamoxifen (SIGMA) for 5 consecutive days. Ad-Cre mediated deletion in LBK1lox/lox mice was done by tail vein injection of 1×10^9 PFUs/mouse in 8 week old males (FIG. 1D). […] For metformin experiments, mice injected intraperitoneally with 250 mg/kg Metformin in 0.9% saline for 1 h.
Experiment [5] relates to HDACs4/5. Description: Immunoblot of HDAC phosphorylation in HepG2 or Huh7 cells treated with phenformin. The experiment is classed as cell-based, human. As to conditions: 2 mM Phenformin for 1 hr. As for the experimental part:
(C) Lysates of HepG2 or Huh7 cells transfected with indicated siRNA pools and treated with either 2 mM Phenformin or vehicle for 1 hr and subjected to immunoblotting.
(§3) HEK293T, Huh7, HepG2, C2C12, and U2OS cells were obtained from ATCC. RNAi SMARTpool human LKB1 (Dharmacon) or RNAi negative control (Invitrogen) used at 20 nM final concentration and transfected using RNAiMAX transfection reagent (Invitrogen). Knockdowns were carried out for 72 hrs. Cells were treated with 1 uM TSA or 10 mM NAM (Sigma), Cells were treated with 2 mM AICAR (Toronto Research Chemicals) or 2 mM Phenformin (Sigma).

Experiment [6] has as its system FOXO1. As to the kind of experiment: FOXO1 acetylation immunoblot in HEK293T cells treated with TSA. The experiment is classed as cell-based. The settings on record: HEK293T cells with Myc-Foxo1 WT, 1 uM TSA for 2 h. As for the experimental part: (C) HEK293T cells were transfected with Myc-Foxo1 WT construct and cells were treated with 1 uM TSA and/or 10 mM NAM for 2 h. Cell lysates were immunoblotted with indicated antibodies.
as §3

Experiment [7] has as its system GFP-HDAC5. As to the kind of experiment: GFP-HDAC5 nuclear translocation in primary mouse hepatocytes (confocal microscopy). The experiment is classed as cell-based. The settings on record: 100 nM glucagon.
The subject of experiment [8] is endogenous Class IIa HDACs. Description: Subcellular fractionation of primary hepatocytes. The experiment is classed as cell-based, mouse. The settings on record: 100 nM Glucagon or 10 uM Forskolin for 1 h.
The test system of experiment [9] is HDAC4/5/7. Description: Immunoblot of HDAC phosphorylation in primary mouse hepatocytes treated with glucagon or forskolin. It is filed as cell-based. As to conditions: 100 nM glucagon or 10 uM forskolin.
Experiment [10] concerns HDAC4/5/7. As to the kind of experiment: Immunoblot of HDAC phosphorylation in liver lysates of glucagon-injected mice. The experiment is classed as in vivo, mouse. As to conditions: mice starved 6 h, glucagon for 45 minutes. As for the experimental part:
(A) Mice were starved for 6 h and then treated with saline, glucagon (Gluca) for 45 minutes, or refed for 3 h. Liver lysates were immunoblotted with indicated antibodies.

Entries after “also recorded” stand apart in the source; their conditions may differ. Bounds are passed on as bounds.

As for `N#Cc1c(O)c2c(-c3ccc(-c4ccccc4O)cc3)csc2[nH]c1=O` [A769662], in experiment [1], the HDAC4/5/7 phosphorylation result is “increased HDAC4/5/7 phosphorylation”.

Consider `Cn1c(/C=C/C(=O)NO)ccc1/C=C/C(=O)c1cccc(F)c1` [MC1568], for which the blood glucose entry in [2] is recorded as “lowers blood glucose; also recorded: suppression”. Also, in experiment [3], the “expression of G6PAse (mRNA, qPCR)” value was “suppresses the expression; also recorded: suppression” and the “expression of PEPCK (mRNA, qPCR)” value is “suppresses the expression; also recorded: suppression”. As for `CN(C)C(=N)N=C(N)N` [metformin], the “Phospho-Ser498 in HDAC4/5/7” value in [4] is on record as “increase in Phospho-Ser498”. For `[H]/N=C(/N)N/C(=N/[H])NCCc1ccccc1` [phenformin], the “phosphorylation on Ser498 of HDACs4/5” value in experiment [5] is “LKB1-dependent increase in phosphorylation”. Turning to `CC(/C=C/C(=O)NO)=C\[C@@H](C)C(=O)c1ccc(N(C)C)cc1` [trichostatin A], in [6], the FOXO1 acetylation entry is listed as “increased FOXO1 acetylation”.

In the case of glucagon, the “time to full nuclear translocation of GFP-tagged HDAC5” value in experiment [7] is not above 30 min. Moreover, the “localization of endogenous Class IIa HDACs” value in experiment [8] is “translocate fully into the nucleus”. In addition, in experiment [9], the “endogenous HDAC4/5/7 phosphorylation” value is “rapid loss of endogenous HDAC4/5/7 phosphorylation”. In experiment [10], the “HDAC4/5/7 phosphorylation in liver” value is given as “reduced HDAC4/5/7 phosphorylation”.

The record behind these values is patent US20140314788A1, “MODULATION OF HISTONE DEACETYLASES FOR THE TREATMENT OF METABOLIC DISEASE, METHODS AND COMPOSITIONS RELATED THERETO” (Salk Institute for Biological Studies, priority 2010, published 2014).
